# Key:
# p37 (Anx I) = details: cited from earlier work
# Anx I [1] = test: Anx I phosphorylation in murine tracheal epithelium membrane and cytosol with ATP+GDP; format: biochemical, mouse
# From the text: Cyclic AMP controls both the membrane aggregating and the cation channel properties of Anx I via a proposed cAMP binding site^20. Because cAMP-dependent fluid secretion^22 and vesicle trafficking^2,3,22 are both disordered in CF airway and annexins share significant homology with the region of CFTR (amino acids 500-529) bearing the common disease mutation^7, we speculated that annexins may be involved in CF. […] We observed an absence of a 37 kDa phosphoprotein in plasma membranes from the airway of a CF mouse model, Cftr^tm1cam, which expresses no CFTR (FIG. 6a, quantitation FIG. 6e). We confirmed the identity of murine p37 as Anx I by immunoprecipitating pre-phosphorylated [^32P]p37 from wild type membranes using antibodies against Anx I (FIG. 5c). […] Because Anx I is a membrane-associated protein which shuttles between membrane and cytosol^26, we studied Anx I phosphorylation in cytosol from wild-type and Cftr^tm1Cam. In the absence of GDP and in contrast to the membrane, we found no differences in Anx I phosphorylation between wild-type and Cftr^tm1Cam cytosol (FIG. 6b; quantitation f). We confirmed the identity of cytosolic p37 as Anx I by immunoprecipitating pre-phosphorylated [^32P]p37 as described above (data not shown). […] It is possible that the excess protein results from a compensatory increase in synthesis to overcome a disruption of function. Excess Anx I protein is consistent with the elevated plasma concentrations of the calcium-dependent annexin binding proteins (S100A8 and A9 or CF antigen) in both CF carriers and patients^27. S100 proteins form obligate dimers^6 which bring together the N termini of different Anx I monomers to promote membrane-membrane fusion.
# Swiss mice (wild-type) (6-10 weeks old) and mutant Cftr^tm1Cam mice^12 (4-12 weeks old) were used in this study. […]
# As described previously^15. […] Pre-stained molecular weight markers were used to avoid staining and destaining of gels prior to imaging and quantification. The incorporation of ^32PO4 into individual protein bands was detected using electronic autoradiography (Canberra-Packard Instant Imager).
# annexin I = test: Inhibition of annexin I phosphorylation in a membrane preparation; format: biochemical
# Description: Following pre-incubation with N^6-monobutyryladenosine 3′:5′ cyclic monophosphate (N^6-mbcAMP) (0-1 mM) at 4° C. for 30 min, a membrane preparation was phosphorylated with γ[^32P] ATP at 37° C. for 5 min.
# As described previously^15. Phosphorylation and Electronic Autoradiography - Briefly, proteins were phosphorylated with either 37 kBq γ[^32P] ATP or GTP (final nucleotide concentration, 16 nM) in 10 mM MOPS pH 7.9 containing 5 mM DTT. The reaction was terminated by adding 5x Laemmli sample buffer (Laemmli (1970) Nature 227, 680-685) and the proteins separated by SDS-PAGE using 12.5% polyacrylamide gels. Pre-stained molecular weight markers were used to avoid staining and destaining of gels prior to imaging and quantification. The incorporation of ^32PO4 into individual protein bands was detected using electronic autoradiography (Canberra-Packard Instant Imager).
# Anx I [2] = test: Nature of the phospho-linkage on ovine [32P]Anx I; format: biochemical; details: data not shown
# Description: Previously, annexins have been reported, to be phosphorylated on serine and tyrosine residues within the N-terminus by PKC and EGF receptor kinase, respectively^18 but acid hydrolysis (6 N HCl at 105° C., 2 h) of ovine [^32P]Anx I. (labelled for 5 min) removed>95% of the radioactivity from p37 (Anx I) (data not shown). Further analysis confirmed that this phospho-linkage was not on serine, threonine or tyrosine residues because it was acid labile (FIG. 5e, lanes 1 and 3), base stable (FIG. 5e, lane 2) and inhabitable following pre-incubation with diethylpyrocarbamate (modifies histidine residues, data not shown). […] To our knowledge, this is the first report in annexins. […] Histidine phosphorylation may regulate the proposed functions of the core—cation channel permeation^20 and/or membrane fusion^6,8.
# As described previously^19. In order to determine the nature of the phosphate linkage on [^32-P]-annexin I, a membrane fraction was labelled with γ[^32P] GTP or γ[^32P] ATP for 5 min at 37° C. The reaction was terminated with 5x Laemmli sample buffer. Phosphorylated protein (10 μg) was then incubated at 30° C. for 10 min in reaction mixtures containing phosphorylation buffer alone, 0.1 N HCl (pH 1), 0.1 N NaOH (pH 13) or 0.8 M hydroxylamine-0.1 M acetate (pH 5.2). […]
# NDPK [3] = test: Ovine CFTR peptide affinity column with ovine tracheal epithelial membrane proteins; format: binding, sheep; details: for Western blot of eluate with antibodies specific to NDPK: eluate from ovine CFTR peptide column; for phosphorylated species in eluate of peptide column (SDS-PAGE, electronic autoradiography): ovine tracheal membrane proteins, eluate phosphorylated with γ[32P]ATP
# Description: (§1) We speculated that this part of CFTR would associate with protein(s) from the chloride-sensitive phosphorylation cascade. We constructed peptides corresponding to the CFTR region encompassing position 508 of human CFTR. Membrane proteins from wild-type human nasal epithelium were incubated with either of two peptides corresponding to the wild-type or the ΔF508 mutant form of CFTR (KENIIFGVSYDEYR or KENIIGVSYDEYR, respectively) linked to an affinity matrix (^18). […] In order to generate sufficient material to characterise the bound protein(s), this experiment was repeated using the equivalent ovine wild-type CFTR peptide (KDNIIFGVSYDEYR) and membrane proteins from ovine tracheal epithelia (^18) Proteins eluted from this peptide column were phosphorylated with γ[^32P]ATP and separated by SDS-PAGE. […] In contrast, the failure of membrane-delimited UTP production in CF does provide an additional rationale for the administration of UTP in this disease.
# (§2) 18. Human nasal epithetium: Apical membrane proteins from human nasal epithelium were solubilised at 4° C. (10 mM KOH, 0.1% Tween), dialysed against PBS-Tween containing protease inhibitors (3 h) and spun at 150 000 g for 1 h. The supernatant was then re-circulated over affinity supports containing either synthetic peptide KENIIFGVSYDEYR or KENIIGVSYDEYR, corresponding to the F508 region of wild-type or […] mutant CFTR, respectively. The columns were washed with PBS-Tween (0.1%) and eluted with 1M KI. Fractions (40×1 ml) were slot blotted onto nitrocellulose under vacuum. The blots were washed in buffer A (10 mM MOPS pH 7.9, 1 mM MgCl2, 0.05% Triton X-100, 1 mM ATP) for 10 min and subsequently labelled with 5 nM γ[^32P]ATP (specific activity 222 TBq/mmol) in buffer A (1 h at room temperature). The blots were finally washed with PBS-Tween (0.1%) for 30 min (6 buffer changes) and visualised using electronic autoradiography. Sheep tracheal epithelia. The pelleted membranes from sheep tracheal epithelia were solubilised with 0.1% glucopyranoside in 50 mM HEPES pH 7.4 on ice for 1 h and centrifuged at 100 000×g for 30 min. The supernatant was applied to a peptide affinity column (KDNIIFGVSYDEYRC, corresponding to the F508 region of ovine wild-type CFTR, coupled to epoxy activated POROS 20 media using the additional terminal cysteine residue). The column was washed with load buffer containing 1M NaCl, followed by load buffer only (100 column volumes or stable OD280˜0.015). Bound proteins were eluted with 50 mM glycine-NaOH pH 11 containing 0.1% glucopyranoside and immediately neutralised with 1M Tris-HCl pH 8.0.
# NDPK [4] = test: Peptide-affinity column binding of human nasal membrane proteins, eluate labelled with [32P]ATP; details: wild-type human nasal epithelium membrane proteins, eluate slot blots exposed to [32P]ATP
# Description: as §1
# as §2, with “The supernatant was applied to a peptide affinity column (KDNIIFGVSYDEYRC, corresponding to the F508 region of ovine wild-type CFTR, coupled to epoxy activated POROS 20 media using the additional terminal cysteine residue). The column was washed with load buffer containing 1M NaCl, followed by load buffer only (100 column volumes or stable OD280˜0.015). Bound proteins were eluted with 50 mM glycine-NaOH pH 11 containing 0.1% glucopyranoside and immediately neutralised with 1M Tris-HCl pH 8.0.” left out
molecule,measurement,setting,value
Nc1nc2c(ncn2[C@@H]2O[C@H](COP(=O)(O)OP(=O)(O)O)[C@@H](O)[C@H]2O)c(=O)[nH]1 [GDP],enhancement of phosphorylation of the 37 kDa protein,"p37 (Anx I); ATP (50 nM)+GDP (500 nM), 37° C., 5 min (ref 15)",20 fold
same,effect on p37 (Anx I) phosphorylation,p37 (Anx I); previously found (ref 15),enhanced
same,"effect on Anx I phosphorylation, Cftr^tm1Cam cytosol","Anx I [1]; Cftr^tm1Cam cytosol, GDP added to γ[32P]ATP",partial restoration of Anx I phosphorylation
same,"effect on histidine phosphorylation of Anx I, Cftr^tm1Cam membranes","Anx I [1]; Cftr^tm1Cam membranes, ATP+GDP",failed to either restore or enhance
same,"effect on Anx I phosphorylation, wild type membranes","Anx I [1]; wild type murine membranes, γ[32P]ATP+GDP",enhancement was also observed
"CCCC(=O)Nc1ncnc2c1ncn2[C@@H]1O[C@@H]2COP(=O)(O)O[C@H]2[C@H]1O [N^6-mbcAMP, N^6-monobutyryladenosine 3′:5′ cyclic monophosphate]",concentration of maximal inhibition of (histidine) phosphorylation of annexin I,"annexin I; pre-incubation 0-1 mM, 4° C., 30 min, γ[32P]ATP 37° C., 5 min",1 mM
Nc1ncnc2c1ncn2[C@@H]1O[C@@H]2COP(=O)(O)O[C@H]2[C@H]1O [cyclic AMP],inhibition of p37 phosphorylation,annexin I; observed whilst characterising NDPK,inhibiton of p^37 phosphorylation
CCOC(=O)OC(=O)OCC [diethylpyrocarbamate],effect of pre-incubation on Anx I phospho-linkage,Anx I [2],inhabitable
KDNIIFGVSYDEYR [equivalent ovine wild-type CFTR peptide; coupled to the column via an additional terminal cysteine],Western blot of eluate with antibodies specific to NDPK,NDPK [3],"detected a 21 kDa protein, indicating the presence of NDPK"
same,Western blot of eluate with antibodies specific to NDPK,NDPK [3]; listed as ovine CFTR peptide,detected a 21 kDa protein
same,"phosphorylated species in eluate of peptide column (SDS-PAGE, electronic autoradiography)",NDPK [3],a 19/21 kDa doublet was the sole phosphorylated species in the eluate
same,"phosphorylated species in eluate of peptide column (SDS-PAGE, electronic autoradiography)",NDPK [3]; listed as ovine CFTR peptide,showed a 19/21 kDa phosphoprotein
KENIIFGVSYDEYR [synthetic peptide corresponding to the F508 region of wild-type human CFTR],phosphorylatable protein bound by and eluted from peptide-affinity column,NDPK [4],bound protein(s) that could be phosphorylated
same,phosphorylatable protein bound by and eluted from peptide-affinity column,NDPK [4]; listed as wild-type peptide,a phosphoprotein was observed in fraction 22
KENIIGVSYDEYR [synthetic peptide corresponding to the F508 region of ΔF508 mutant human CFTR],phosphorylatable protein bound by and eluted from peptide-affinity column,NDPK [4],No phosphorylation was observed

# — patent US20020065225A1, “Methods of determining altered NDPK functions and the diagnosis of cystic fibrosis” (priority 1999, published 2002)
